# Key:
# Assay type in all cases: in vivo, C57Bl/6J mice
# [1] = tested on: diet induced obese hyperglycemic mice; assay: Experiment 3: fasting blood glucose after single oral S-13 lettuce
# Description: (§1) Five-week-old male C57Bl/6J mice (Jackson Labs) were housed in cages (five mice to a cage) at 25° C. with 12-h light-dark cycle. Mice were given ad libitum access to food and water and after an acclimatization period of one week, rodent diet was switched from chow (Purina, No. 5015) to a very high fat diet (VHFD) containing 60% kcal fat (D12492, Research Diets, New Brunswick, N.J.) for a at least 12 weeks to induce obesity, insulin resistance, and hyperglycemia (Surwit et al., Clin. Exp. Met., 44:645-51, 1995). Weekly food intake per cage and individual body weight measurements were determined throughout the study. All mice were introduced to intragastric feeding prior to treatment. During this time, a gavage administration of 0.2 mL of double distilled water was performed daily for 2-3 days prior to the scheduled experiments.
# (§2) For all experiments, mice were randomly divided into fasting blood glucose (FBG)-balanced experimental groups. Lettuce leaves were lyophilized powdered and suspended in 66% labrasol or water for the aqueous extract and Metformin® antidiabetic drug was dissolved in water. Blood glucose levels were measured using an AlphaTrak® handheld glucometer (Abbott Labs Inc., Abbott Park, Ill.) using test strips.
# In experiment 3, mice were treated using an oral ingestion of vehicle (66% labrasol), S-13 lettuce (100, 300 or 450 mg/kg), green Romaine lettuce (450 mg/kg, commercially available), or Metformin® antidiabetic drug (300 mg/kg) (n=4-5 Following a 4 h fasting period, FBG was measured immediately prior to treatment and 6 h post treatment (Table 7).
# (§3) Statistically significant differences between were analyzed by ANOVA followed by Dunnett's multiple comparisons test and/or paired t-tests (one tail) comparing FBG levels immediately prior to treatment (0 h) and 6 hours after treatment (Table 5). A p-value <0.05 was considered statistically significant.
# [2] = tested on: diet induced obese hyperglycemic mice; assay: Experiment 1: fasting blood glucose after single oral NFR-S-4 lettuce; conditions: for FBG: mean +/- SD
# Description: as §1, §2
# In experiment 1, following a 4 hour fasting period, FBG was measured immediately prior to treatment and 6 hours post treatment. […]
# as §3
# [3] = tested on: diet induced obese hyperglycemic mice; assay: Experiment 2: oral glucose tolerance test after daily oral NFR-S-4 aqueous extract; conditions: positive control 250 mg/kg
# Description: as §1, §2
# (§4) In experiment 2, high fat diet-induced obese mice, animals were given daily oral administration of NFR-S-4 aqueous extract (100 or 300 mg/kg) or vehicle (water) for 28 days (n=10) (Table 6). A Metformin® antidiabetic drug group (250 mg/kg) was included as a positive control for the animal model (n=5). Aqueous extracts were prepared by a 5:1 extraction (solvent volume to fresh weight) in hot (100° C.) acidified water (pH 2 with H2SO4) to assist with anthocyanin stability during the extraction process. Mice were fasted overnight prior to an oral glucose tolerance test. For oral glucose tolerance tests, mice were given an oral glucose challenge (2 g/kg) and blood glucose levels were measured prior to glucose challenge and 30, 60, 90, 120 and 180 minutes after glucose administration (Table 6).
# as §3
# [4] = tested on: diet induced obese hyperglycemic mice; assay: Experiment 4: oral glucose tolerance test 2 h after oral S-13 lettuce; conditions: 300 mg/kg oral 2 h before test
# Description: as §1, §2, §4
# In experiment 4, mice were treated with S-13 lettuce (100 mg/kg), vehicle (66% labrasol), or Metformin® antidiabetic drug (300 mg/kg) by oral administration (n=8-10). After 2 h, mice were given an oral glucose tolerance test as described above (Table 8).
# as §3
# [5] = 6 h post treatment, 300 mg/kg oral
smiles,measurement,setting,value
CN(C)C(=N)N=C(N)N [Metformin],FBG,"[1]; 0 (immediately prior to treatment), 4 h fast, 300 mg/kg oral group, mean +/- SD",214 ± 20 mg/dL
same,% Decrease in FBG,"[1]; 0 to 6 h, 300 mg/kg oral",31 +/− 19%
same,FBG,[1]; [5],146 ± 34 mg/dL
same,FBG,"[2]; 0 h (immediately prior to treatment), 4 h fast, 300 mg/kg oral group",222 ± 19 mg/dL
same,% Decrease in FBG,"[2]; 0 h to 6 h, 300 mg/kg oral",39 +/− 14%
same,FBG,[2]; [5],133 ± 25 mg/dL
same,"FBG, oral glucose tolerance test","[3]; 0 min, glucose 2 g/kg",181 ± 26 mg/dL
same,"FBG, oral glucose tolerance test",[3]; 30 min,298 ± 52 mg/dL
same,"FBG, oral glucose tolerance test",[3]; 60 min,244 ± 19 mg/dL
same,"FBG, oral glucose tolerance test",[3]; 90 min,247 ± 32 mg/dL
same,"FBG, oral glucose tolerance test",[3]; 120 min,249 ± 35 mg/dL
same,"Area under the curve, oral glucose tolerance test",[3],30153
same,"FBG, oral glucose tolerance test","[4]; 0 min, glucose 2 g/kg",206 ± 45 mg/dL
same,"Area under the curve, oral glucose tolerance test",[4],40683
same,"FBG, oral glucose tolerance test",[4]; 30 min,261 ± 51 mg/dL
same,"FBG, oral glucose tolerance test",[4]; 60 min,263 ± 69 mg/dL
same,"FBG, oral glucose tolerance test",[4]; 90 min,257 ± 62 mg/dL
same,"FBG, oral glucose tolerance test",[4]; 120 min,196 ± 31 mg/dL
same,"FBG, oral glucose tolerance test",[4]; 180 min,176 ± 30 mg/dL
